Data as given in US4282215A, “Analgesic mixture of nalbuphine and acetylsalicylic acid, derivative or salt thereof” (E. I. Du Pont de Nemours and Company, priority 1980, dated 1981).
Structures can show the parent of a compound that is named as a salt.

Tests used:
[1] = system: phenyl-p-benzoquinone induced writhing in mice; test: mouse antiphenylquinone writhing test at 40 minutes, oral nalbuphine.HCl / calcium aspirin (Method 2); assay type: in vivo, mouse (Male CF1)
Experimental: (§1) Male CF1 mice obtained from Charles River Breeding Laboratories, fasted for 16-22 hours, and weighing 18-22 g at the time of testing are used throughout. All mice are dosed sequentially by the oral route with suspensions of acetylsalicylic acid and/or of nalbuphine solutions (Method 1) or of calcium acetylsalicylate (calcium aspirin) and/or of nalbuphine solutions (Method 2). In each case the aspirin component is calculated as the equivalent free acid content, and nalbuphine is calculated as the hydrochloride salt. A dosing volume of 10 ml/kg is used for each sequential solution or suspension. All doses are coded and the test is performed under a code not known to the observer.
A stock solution of calcium aspirin is prepared by mixing 4.032 gm of aspirin and 1.120 gm of precipitated calcium carbonate with 50 ml of distilled water at 40°-50° C. until the solids are completely dissolved, then diluting to 60 ml with distilled water at ambient temperature to obtain a solution containing 67.2 mg/ml of aspirin equivalent. All dosing solutions are prepared by dilution of the stock solution with distilled water; the vehicle control is distilled water. All solutions are used within two hours of preparation, then discarded.
Stock solutions of nalbuphine.HCl are prepared as described for Method 1.
(§2) A standard procedure for detecting and comparing the analgetic activity of different classes of analgesic drugs for which there is a good correlation with human analgetic activity is the prevention of phenyl-p-benzoquinone induced writhing in mice [H. Blumberg et al., Proc. Soc. Exp. Biol. Med., 118, 763-766 (1965)].
(§3) Mice, intubated with various doses of nalbuphine.HCl, aspirin suspensions (Method 1), calcium aspirin solution (Method 2), or immediately sequential doses of nalbuphine.HCl and of the aspirin preparations as defined further, or of the respective vehicles, are injected intraperitoneally with a standard challenge dose of phenyl-p-benzoquinone 5 min. prior to a designated observation period. The phenyl-p-benzoquinone is prepared as a 0.1 mg/ml solution in 5% by volume of ethanol in water; the writhing dose is 1.25 mg/kg injected at a volume of 0.25 ml/20 g. For scoring purposes a "writhe" is indicated by whole body stretching or contraction of the abdomen during a 10 min. observation period beginning 5 min. after receiving the phenyl-p-benzoquinone dose. Each mouse is used only once, then discarded.
(§4) All ED50 values and their 95% confidence limits are determined numerically by the methods of Thompson [W. F. Thompson, Bacteriological Rev., 11, 115-145 (1947)], Litchfield and Wilcoxon [J. T. Litchfield, Jr. and F. Wilcoxon, J. Pharm. Exp. Ther., 96, 99-113 (1949)], or Finney [D. J. Finney, "Probit Analysis," third edition, Cambridge University Press, Cambridge, England, (1971)].
Rev., 9, 237-242 (1957)] in FIG. 1. […] In the isobolographic figures, the analgetic effects of nalbuphine alone are presented on the Y axis and of aspirin alone (or calcium aspirin, expressed as aspirin equivalent dosages) on the X axis. The dotted lines radiating from the origin represent the fixed dosage ratios of nalbuphine.HCl:aspirin in the ranges of 1:2.44 to 1:60.9 and 1:1.76 to 1:61.7 for FIGS. 1 and 2, respectively. […] The arrows extending above and below each ED50 point represent the 95% confidence limits of the ED50's.
The solid line connecting the ED50 dosages of nalbuphine (alone) and aspirin (alone) represents the "ED50 addition line," which indicates the expected location of the ED50's for nalbuphine and aspirin combinations if simple additivity were to describe their combined effects. The 95% confidence range for the ED50 addition line is shown by the area between the broken lines above and below the ED50 addition line. […]

[2] = system: phenyl-p-benzoquinone induced writhing in mice; test: mouse antiphenylquinone writhing test at 20 minutes, oral nalbuphine.HCl / aspirin suspension (Method 1); assay type: in vivo, mouse (Male CF1)
Experimental: as §1
A stock suspension of aspirin is prepared by mixing 2.016 gm aspirin with 40 ml of an aqueous vehicle containing 2% by volume of Tween 80®, a pharmacological dispersant manufactured by Fisher Scientific Company and containing 100% polysorbate 80, and 1% by weight of Methocel® MC powder, a pharmacological suspending agent manufactured by DOW Chemical Company and containing 100% methylcellulose, in distilled water. The mixture is sonicated at 150 watts for 10-15 seconds with an ultrasound system, then shaken for 1 hour at 280 oscillations/minute with 15-20 gm of glass beads. The resultant suspension contains 50.4 mg/ml of aspirin; all dosing suspensions are prepared by dilution of the stock suspension with the Methocel®/Tween 80® vehicle; the vehicle control is Methocel®/Tween 80®. All suspensions are used within two hours of preparation, then discarded.
Stock solutions of nalbuphine.HCl are prepared by dissolving dry nalbuphine hydrochloride powder with distilled water. All dosing solutions are prepared by dilution of the stock solutions with distilled water; the vehicle control is distilled water.
as §2, §3, §4
Rev., 9, 237-242 (1957)] in FIG. 1. […] In the isobolographic figures, the analgetic effects of nalbuphine alone are presented on the Y axis and of aspirin alone (or calcium aspirin, expressed as aspirin equivalent dosages) on the X axis. The dotted lines radiating from the origin represent the fixed dosage ratios of nalbuphine.HCl:aspirin in the ranges of 1:2.44 to 1:60.9 and 1:1.76 to 1:61.7 for FIGS. 1 and 2, respectively. […] The arrows extending above and below each ED50 point represent the 95% confidence limits of the ED50's. […]

Compound: CC(=O)Oc1ccccc1C(=O)O [calcium aspirin, calcium acetylsalicylate]
- ED50 at 40 MIN., Aspirin (component; calcium aspirin as equivalent free aspirin) ([1]; N = 54 mice/dose): 171 mg/kg
- % MICE BLOCKED ([1]; nalbuphine.HCl 0, aspirin equiv. 48 mg/kg): 7.4%
- % MICE BLOCKED ([1]; nalbuphine.HCl 0, aspirin equiv. 96 mg/kg): 13.0%
- % MICE BLOCKED ([1]; nalbuphine.HCl 0, aspirin equiv. 192 mg/kg): 63.0%
- % MICE BLOCKED ([1]; nalbuphine.HCl 0, aspirin equiv. 384 mg/kg): 87.0%

Compound: Oc1ccc2c3c1O[C@H]1[C@@H](O)CC[C@@]4(O)[C@@H](C2)N(CC2CCC2)CC[C@]314 [Nalbuphine . HCl, (-)17-(cyclobutylmethyl)-4,5α-epoxymorphinan-3,6α,14-triol]
- ED50 at 20 MIN., Nalbuphine . HCl (component) ([2]; N = 24 mice/dose): 26.1 mg/kg
- % MICE BLOCKED ([2]; nalbuphine.HCl 5.18 mg/kg, aspirin 0): 0%
- % MICE BLOCKED ([2]; nalbuphine.HCl 10.4 mg/kg, aspirin 0): 16.7%
- % MICE BLOCKED ([2]; nalbuphine.HCl 20.7 mg/kg, aspirin 0): 50.0%
- % MICE BLOCKED ([2]; nalbuphine.HCl 41.4 mg/kg, aspirin 0): 62.5%
- ED50 at 40 MIN., Nalbuphine . HCl (component) ([1]; N = 54 mice/dose): 42.6 mg/kg
- % MICE BLOCKED ([1]; nalbuphine.HCl 5.45 mg/kg alone): 13.0%
- % MICE BLOCKED ([1]; nalbuphine.HCl 10.9 mg/kg, aspirin 0): 16.7%
- % MICE BLOCKED ([1]; nalbuphine.HCl 21.8 mg/kg, aspirin 0): 27.8%
- % MICE BLOCKED ([1]; nalbuphine.HCl 43.6 mg/kg, aspirin 0): 50.0%
- % MICE BLOCKED ([1]; nalbuphine.HCl 87.2 mg/kg, aspirin 0): 74.1%

Compound: CC(=O)Oc1ccccc1C(=O)O [Aspirin, acetylsalicylic acid]
- ED50 at 20 MIN., Aspirin (component) ([2]; N = 24 mice/dose): 206 mg/kg
- % MICE BLOCKED ([2]; nalbuphine.HCl 0, aspirin 63 mg/kg): 8.3%
- % MICE BLOCKED ([2]; nalbuphine.HCl 0, aspirin 126 mg/kg): 37.5%
- % MICE BLOCKED ([2]; nalbuphine.HCl 0, aspirin 252 mg/kg): 58.3%
- % MICE BLOCKED ([2]; nalbuphine.HCl 0, aspirin 504 mg/kg): 79.2%
